Measured values: ChEMBL document CHEMBL1201862, “PubChem BioAssay data set” (2004)
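How tested: cells in 96-well plates exposed to compound for 48 hours at five concentrations. The concentration for 50% growth inhibition is given as GI50.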 Calls of active or inactive are those of the source. Rule as the data show it: active = GI50 up to about 1.1 µM and inactive = higher.

Legend:
Assay in all cases: DTP human tumour cell line panel, 48 h
HT-29 = system: HT-29
SW-620 = system: SW-620
HL-60 = system: HL-60
Malme-3M = system: Malme-3M
PC-3 = system: PC-3
U-251 = system: U-251
SK-MEL-5 = system: SK-MEL-5
ACHN = system: ACHN
NCI-H522 = system: NCI-H522
T47D = system: T47D
SNB-75 = system: SNB-75
DU-145 = system: DU-145
A498 = system: A498
M14 = system: M14
HCT-15 = system: HCT-15
HCC 2998 = system: HCC 2998
NCI-H23 = system: NCI-H23
NCI/ADR-RES = system: NCI/ADR-RES
UO-31 = system: UO-31
CAKI-1 = system: CAKI-1
RXF 393 = system: RXF 393
MOLT-4 = system: MOLT-4
CCRF-CEM = system: CCRF-CEM
MCF7 = system: MCF7
OVCAR-3 = system: OVCAR-3
MDA-MB-435 = system: MDA-MB-435
OVCAR-8 = system: OVCAR-8
BT-549 = system: BT-549
SF-295 = system: SF-295
OVCAR-4 = system: OVCAR-4
786-0 = system: 786-0
SK-MEL-28 = system: SK-MEL-28
A549 = system: A549
EKVX = system: EKVX
KM12 = system: KM12
SF-268 = system: SF-268
HOP-92 = system: HOP-92
SR = system: SR
SN12C = system: SN12C
LOX IMVI = system: LOX IMVI
HOP-62 = system: HOP-62
OVCAR-5 = system: OVCAR-5
NCI-H460 = system: NCI-H460
Hs-578T = system: Hs-578T
SF-539 = system: SF-539
MDA-MB-231 = system: MDA-MB-231
COLO 205 = system: COLO 205
UACC-257 = system: UACC-257
RPMI-8226 = system: RPMI-8226
IGROV-1 = system: IGROV-1
MDA-N = system: MDA-N
K562 = system: K562
NCI-H226 = system: NCI-H226
HCT-116 = system: HCT-116
UACC-62 = system: UACC-62
TK-10 = system: TK-10
SK-OV-3 = system: SK-OV-3
SK-MEL-2 = system: SK-MEL-2
SNB-19 = system: SNB-19

O=C1CC(CC(O)C(O)C(O)CO)CC(=O)N1 (configuration not stated)
GI50 (HT-29): > 100 µM (inactive)
GI50 (SW-620): > 100 µM (inactive)
GI50 (HL-60): > 100 µM (inactive)
GI50 (Malme-3M): > 100 µM (inactive)
GI50 (PC-3): > 100 µM (inactive)
GI50 (U-251): > 100 µM (inactive)
GI50 (SK-MEL-5): > 100 µM (inactive)
GI50 (ACHN): > 100 µM (inactive)
GI50 (NCI-H522): > 100 µM (inactive)
GI50 (T47D): > 100 µM (inactive)
GI50 (SNB-75): > 100 µM (inactive)
GI50 (DU-145): > 100 µM (inactive)
GI50 (A498): > 100 µM (inactive)
GI50 (M14): > 100 µM (inactive)
GI50 (HCT-15): > 100 µM
GI50 (HCC 2998): > 100 µM (inactive)
GI50 (NCI-H23): > 100 µM (inactive)
GI50 (NCI/ADR-RES): > 100 µM (inactive)
GI50 (UO-31): > 100 µM (inactive)
GI50 (CAKI-1): > 100 µM (inactive)
GI50 (RXF 393): > 100 µM (inactive)
GI50 (MOLT-4): > 100 µM (inactive)
GI50 (CCRF-CEM): > 100 µM (inactive)
GI50 (MCF7): > 100 µM (inactive)
GI50 (OVCAR-3): > 100 µM (inactive)
GI50 (MDA-MB-435): > 100 µM (inactive)
GI50 (OVCAR-8): > 100 µM (inactive)
GI50 (BT-549): > 100 µM (inactive)
GI50 (SF-295): > 100 µM (inactive)
GI50 (OVCAR-4): > 100 µM (inactive)
GI50 (786-0): > 100 µM (inactive)
GI50 (SK-MEL-28): > 100 µM (inactive)
GI50 (A549): > 100 µM (inactive)
GI50 (EKVX): > 100 µM (inactive)
GI50 (KM12): > 100 µM (inactive)
GI50 (SF-268): > 100 µM (inactive)
GI50 (HOP-92): > 100 µM (inactive)
GI50 (SR): > 100 µM (inactive)
GI50 (SN12C): > 100 µM (inactive)
GI50 (LOX IMVI): > 100 µM (inactive)
GI50 (HOP-62): > 100 µM (inactive)
GI50 (OVCAR-5): > 100 µM (inactive)
GI50 (NCI-H460): > 100 µM (inactive)
GI50 (Hs-578T): > 100 µM (inactive)
GI50 (SF-539): > 100 µM (inactive)
GI50 (MDA-MB-231): > 100 µM (inactive)
GI50 (COLO 205): > 100 µM (inactive)
GI50 (UACC-257): > 100 µM (inactive)
GI50 (RPMI-8226): > 100 µM (inactive)
GI50 (IGROV-1): > 100 µM (inactive)
GI50 (MDA-N): > 100 µM (inactive)
GI50 (K562): > 100 µM (inactive)
GI50 (NCI-H226): > 100 µM (inactive)
GI50 (HCT-116): > 100 µM (inactive)

COc1c(C(=O)O)cccc1-c1cccc(C(=O)NCCN(CCNC(=O)c2cccc(-c3cccc(C(=O)O)c3OC)c2OC)CCNC(=O)c2cccc(-c3cccc(C(=O)O)c3OC)c2OC)c1OC
GI50 (HT-29): 20.7 µM (inactive)
GI50 (SW-620): 29.6 µM (inactive)
GI50 (HL-60): 18.2 µM (inactive)
GI50 (Malme-3M): 23.4 µM (inactive)
GI50 (PC-3): 27.9 µM (inactive)
GI50 (UACC-62): 25.8 µM (inactive)
GI50 (U-251): 28.5 µM (inactive)
GI50 (SK-MEL-5): 4.84 µM (inactive)
GI50 (ACHN): 50.5 µM (inactive)
GI50 (NCI-H522): 33.3 µM (inactive)
GI50 (T47D): 43 µM (inactive)
GI50 (SNB-75): 25.9 µM (inactive)
GI50 (DU-145): 39 µM (inactive)
GI50 (A498): 31.8 µM (inactive)
GI50 (HCT-15): 65.2 µM
GI50 (HCC 2998): 31.7 µM (inactive)
GI50 (TK-10): > 100 µM (inactive)
GI50 (NCI-H23): 64.7 µM (inactive)
GI50 (NCI/ADR-RES): > 100 µM (inactive)
GI50 (UO-31): > 100 µM (inactive)
GI50 (CAKI-1): 51.6 µM (inactive)
GI50 (RXF 393): 28.6 µM (inactive)
GI50 (MOLT-4): 36.7 µM (inactive)
GI50 (CCRF-CEM): 35.2 µM (inactive)
GI50 (MCF7): 37.8 µM (inactive)
GI50 (OVCAR-3): 18.5 µM (inactive)
GI50 (MDA-MB-435): 11.4 µM (inactive)
GI50 (OVCAR-8): 63 µM (inactive)
GI50 (BT-549): 52.1 µM (inactive)
GI50 (SF-295): 40.5 µM (inactive)
GI50 (OVCAR-4): 60.5 µM (inactive)
GI50 (786-0): 31.6 µM (inactive)
GI50 (SK-MEL-28): 52.5 µM (inactive)
GI50 (A549): 49.5 µM (inactive)
GI50 (EKVX): 64.6 µM (inactive)
GI50 (KM12): 18.6 µM (inactive)
GI50 (SF-268): 74.8 µM (inactive)
GI50 (HOP-92): 67.1 µM (inactive)
GI50 (SR): 10.7 µM (inactive)
GI50 (SN12C): 29.4 µM (inactive)
GI50 (LOX IMVI): 32.3 µM (inactive)
GI50 (HOP-62): 58.9 µM (inactive)
GI50 (OVCAR-5): 28.6 µM (inactive)
GI50 (NCI-H460): 25.4 µM (inactive)
GI50 (SK-OV-3): 33 µM (inactive)
GI50 (Hs-578T): 28 µM (inactive)
GI50 (SF-539): 37.2 µM (inactive)
GI50 (MDA-MB-231): 37.6 µM (inactive)
GI50 (SK-MEL-2): 31.8 µM (inactive)
GI50 (COLO 205): 20.2 µM (inactive)
GI50 (UACC-257): 62.7 µM (inactive)
GI50 (RPMI-8226): 23.2 µM (inactive)
GI50 (IGROV-1): 39.8 µM (inactive)
GI50 (MDA-N): 5.58 µM (inactive)
GI50 (K562): 24.3 µM (inactive)
GI50 (NCI-H226): 32.7 µM (inactive)
GI50 (SNB-19): 52 µM (inactive)
GI50 (HCT-116): 33.4 µM (inactive)
